{"source": "patent US10066272B2", "about": "“Human homeobox gene ventx and macrophage terminal differentiation and activation, compositions and methods thereof” (priority 2011, dated 2018)", "test_system": "macrophages", "experiment": "Macrophage classical activation after siRNA transfection, surface markers by flow cytometry", "assay_type": "cell-based, human", "settings": "transfected macrophages", "experimental": "Macrophages were generated through incubation of freshly isolated monocytes with 100 ng/mL M-CSF for 4 days. These macrophages were then transfected with siGFP or siVentX, respectively, and further cultured in RPMI 1640 medium for additional 3 days. Thereafter, cells were exposed to 1 μg/mL LPS plus 20 ng/mL γ-IFN for 6 hours. (A) Surface staining of CD40, CD80, CD86 and HLA-DR and intracellular staining of TNF-α and IL1-β were analyzed by flow cytometry. (B) Secreted TNF-α, IL1-β and IL12p70 from culture supernatants were determined with ELISA kits. (C) Reactive oxygen species (ROS) from siGFP or siVentX transfected macrophages were analyzed with fluorescence microscope (left) and flow cytometry (middle). […] (D) Nitrate level from siGFP and siVentX transfected macrophages. Data represent mean+SD of three different experiments. (E) Phagocytosis of siGFP and siVentX transfected macrophage. Red histogram represents transfection with siGFP; green histogram represents transfection with siVentX. Left panel: cells were incubated on ice; right panel: cells were incubated at 37° C. (F) Effects of VentX knockdown on mixed lymphocyte reaction. […]\n(A) Effects VentX over-expression on the expression of LPS and IFN-γ pathways components. […] No significant binding of VentX to the promoter regions of STAT1 and JunB was detected by the ChIP assay. […]"}
{"substance": "siVentX: VentX siRNA, forward 5′-UUCAGAAUCGCCGCAUGAAACACAAACGG-3′ (SEQ ID NO:4), reverse SEQ ID NO:5 (antisense CCGUUUGUGUUUCAUGCGGCGAUUCUGAA; listed as RNA, chemistry not given here)", "values": [{"measurement": "surface expression of CD40, CD80 and CD86", "setting": "LPS plus IFN-γ, HLA-DR not affected (FIG. 8A)", "result": "significantly down-regulated"}, {"measurement": "surface expression of CD119 (IFN-γ receptor 1), CD14 and TLR4", "setting": "flow cytometry (FIG. 9C)", "result": "significantly diminished"}]}
